Experiments:
U2OS [1] = experiment: In vitro effect on the G2/M phase of cell cycle of U2OS cells upon incubation at 37 degree for 24 hours in FCM assay at concentration of 500 nM; assay type: functional, Homo sapiens
U2OS [2] = experiment: In vitro effect on the S phase of cell cycle of U2OS cells upon incubation at 37 degree for 24 hours in FCM assay at concentration of 500 nM; assay type: functional, Homo sapiens
U2OS [3] = experiment: In vitro effect on the G1 phase of cell cycle of U2OS cells upon incubation at 37 degree for 24 hours in FCM assay at concentration of 500 nM; assay type: functional, Homo sapiens
U2OS [4] = experiment: In vitro effect on the G2/M phase of cell cycle of U2OS cells upon incubation at 37 degree for 24 hours in FCM assay; all the cell died at tested concentration (500 nM); assay type: functional, cell-based; settings: Homo sapiens
U2OS [5] = experiment: In vitro effect on the G1 phase of cell cycle of U2OS cells upon incubation at 37 degree for 24 hours in FCM assay; all the cell died at tested concentration (500 nM); assay type: functional, cell-based; settings: Homo sapiens
U2OS [6] = experiment: In vitro effect on the S phase of cell cycle of U2OS cells upon incubation at 37 degree for 24 hours in FCM assay; all the cell died at tested concentration (500 nM); assay type: functional, cell-based; settings: Homo sapiens

| SMILES | Content of cell cycle (U2OS [1]) [%] | Content of cell cycle (U2OS [2]) [%] | Content of cell cycle (U2OS [3]) [%] | also measured |
| --- | --- | --- | --- | --- |
| COc1cc(OC)c2c(=O)c(C(F)(F)F)c(-c3ccccc3)oc2c1 | 14.99 | 31.95 | 53.06 | – |
| COc1ccc(-c2c(C(F)(F)F)oc3cc(OC)cc(OC)c3c2=O)cc1 | – | – | – | Activity (U2OS [1]): 5.29%; Activity (U2OS [2]): 48.02%; Activity (U2OS [3]): 46.69% |
| COc1cc(OC)c2c(c1)OC(c1ccccc1)=CC2(O)C(F)(F)F (stereo not given) | – | – | – | Activity (U2OS [4]): all the cells died at tested concentration (500 nM); Activity (U2OS [5]): all the cells died at tested concentration (500 nM); Activity (U2OS [6]): all the cells died at tested concentration (500 nM) |
| COc1ccc(-c2oc3cc(OC)cc(OC)c3c(=O)c2C(F)(F)F)cc1 | 6.67 | 49.24 | 44.09 | – |
| COc1cc(OC)c2c(=O)cc(-c3cc(C(F)(F)F)c(OC)c(C(F)(F)F)c3)oc2c1 | 0 | 44.92 | 55.08 | – |

— ChEMBL document CHEMBL1142842, “Trifluoromethylation of flavonoids and anti-tumor activity of the trifluoromethylated flavonoid derivatives” (2005)
